Earlier results as cited in US6689384B2, “Stable pergolide mesylate and process for making same” (Teva Pharmaceuticals Industries Ltd., priority 2000, dated 2004).
Where a name gives a salt, the structure may show the parent alone.

How the values were obtained:
[1] = test system: serum concentrations of luteinizing hormone; details: in humans
[2] = test system: serum concentrations of growth hormone; details: in humans
[3] = test system: secretion of prolactin; details: in humans
[4] = oral administration, 14C radio-labeled
[5] = test system: plasma proteins

Structure (SMILES) | serum concentrations of luteinizing hormone [1] | serum concentrations of growth hormone [2] | secretion of prolactin [3] | administered radioactivity recovered from expired CO2 [4] [%] | administered radioactivity recovered from the urine [4] | bound to plasma proteins [5]
CCCN1CC(CSC)CC2c3cccc4[nH]cc(c34)CC21 (stereo not drawn) [Pergolide mesylate, 8(beta)-[(Methylthio)methyl]-6-propylergoline monomethanesulfonate] | decrease | transient rise | inhibits | ~5 | approximately 55% | 
CCCN1C[C@H](CSC)C[C@@H]2c3cccc4[nH]cc(c34)C[C@H]21 [Pergolide] |  |  |  |  |  | approximately 90%
